Marks after values point to notes of the source that are not given here.
Legend:
[1] = system: scopolamine-induced amnesia of rats; test: Effects on scopolamine-induced amnesia, passive avoidance task (oral administration); assay type: in vivo, rat; details: 60 min before trial, scopolamine hydrobromide 2 mg/kg i.p., latency 24 h after shock, male Sprague Dawley rats; for inhibition in vivo at 0.01 mg/kg / inhibition in vivo at 1 mg/kg: Rattus norvegicus, po, read-out: Inhibitory rate (%)
Source text: Male rats of the Strague Dawley strain at 8 weeks of age (260±2 g body weight) were used for evaluation through passive avoidance task. The apparatus of passive avoidance task comprises illuminated and dark chambers which are separated from each other by a wall with a door. Floors are constituted by grids made of stainless steel; only the grid in the dark chamber is furnished with wiring for electrification.
Effected on the first and second days of testing was preparative training; each rat was placed in the illuminated chamber and left for 3 minutes to habituate to the apparatus. On the third day of testing, the rats were individually placed in the illuminated chamber and after entering the dark chamber, the door was closed and the floor grid was electrified to deliver electric shock (100 V, 0.4 mA, a period of 0.8 sec). In order to induce amnesia, scopolamine hydrobromide (2 mg/kg) was intraperitoneally injected 20 minutes before the electric shock was delivered. Retention in memory on the electric shock was tested 24 hours later; more specifically, retention in passive avoidance was measured in terms of a time interval (latency) from placement of each rat in the illuminated chamber to its entry into the dark chamber. The latency over 300 seconds was recorded as 300 seconds. Respective test compounds were suspended in an aqueous solution of 1% carboxymethyl cellulose and orally administered at a dose of 0.01 or 1 mg/kg 60 minutes before the trial.
Antiamnesic effects of the test compounds were evaluated by inhibitory rate (%) which is calculated by the following formula:
[formula] wherein T stands for latency and SC, administration of scopolamine hydrobromide. Experimental results are shown in the following table in which, as to each of the test compounds, only the dose showing higher inhibitory rate was indicated.

| melting point | Molecule | inhibition in vivo at 0.01 mg/kg ([1]; dose 0.01 mg/kg p.o.) [%] | other results |
| --- | --- | --- | --- |
| – | COc1cc2c(cc1OC)C(=O)C(CC1CCN(Cc3ccccc3)CC1)C2 (racemic) [compound C, (R,S)-1-benzyl-4-(5,6-dimethoxy-1-indanon-2-yl)-methylpiperidine, reference compound] | 12.5 | inhibition in vivo at 1 mg/kg ([1]; dose 1 mg/kg p.o.): 24.7% |
| – | O=C1N=C2SC=CN2C1(Cc1ccc(F)cc1)Cc1ccc(F)cc1 [compound 1, 5,5-bis(4-fluorobenzyl)imidazo[2,1-b]thiazol-6(5H)-one] | – | inhibition in vivo at 1 mg/kg ([1]; dose 1 mg/kg p.o.): 56.1% |
| > 300 °C | O=C1N=C2SC=CN2C1(Cc1ccccc1)Cc1ccccc1 [compound 2, 5,5-dibenzylimidazo[2,1-b]thiazol-6(5H)-one] | 86.9 | – |
| > 300 °C | O=C1N=C2N=CC=CN2C1(Cc1ccccc1)Cc1ccccc1 [compound 3, 3,3-dibenzylimidazo[1,2-a]pyrimidin-2(3H)-one] | 60.3 | – |
| > 300 °C | Cc1ccc(CC2(Cc3ccc(C)cc3)C(=O)N=C3SC=CN32)cc1 [compound 4, 5,5-bis(4-methylbenzyl)imidazo[2,1-b]thiazol-6(5H)-one] | 49.8 | – |
| 264 to 267 °C | N#Cc1ccc(CC2(Cc3ccc(C#N)cc3)C(=O)N=C3SC=CN32)cc1 [compound 5, 5,5-bis(4-cyanobenzyl)imidazo[2,1-b]thiazol-6(5H)-one] | 49.6 | – |
| > 300 °C | CC1=CN2C(=NC(=O)C2(Cc2ccccc2)Cc2ccccc2)S1 [compound 6, 5,5-dibenzyl-2-methylimidazo[2,1-b]thiazol-6(5H)-one] | 66.6 | – |
| 286 °C (dec.) | O=C1N=C2SC=CN2C1(Cc1cccs1)Cc1cccs1 [compound 7, 5,5-bis(2-thienylmethyl)imidazo[2,1-b]thiazol-6(5H)-one] | – | – |
| 192 °C (dec.) | O=C1N=C2N=CC=CN2C1(Cc1cccs1)Cc1cccs1 [compound 8, 3,3-bis(2-thienylmethyl)imidazo[1,2-a]pyrimidin-2(3H)-one] | 58.9 | – |
| 233 to 236 °C | O=C1N=C2SCCN2C1(Cc1ccccc1)Cc1ccccc1 [compound 9, 5,5-dibenzyl-2,3-dihydroimidazo[2,1-b]thiazol-6(5H)-one] | 86.6 | – |
| – | Oc1nc2ccccn2c1Cc1ccc2ccccc2c1 [compound 10, 2-hydroxy-3-(2-naphtylmethyl)imidazo[1,2-a]pyridin] | – | Inhibitory rate (%) ([1]; dose 0.01 mg/kg p.o.): 40.8* % |
| – | O=C1N=C2C=CC=CN2C12Cc1cc3ccccc3cc1C2 [compound 11, spiro[imidazo[1,2-a]pyridin-2(3H)-one-3,2′-benzo[f]-indan]] | – | Inhibitory rate (%) ([1]; dose 0.01 mg/kg p.o.): 80.4** % |
| 218 to 220 °C | O=C1N=C2CCCCN2C1(C1CCCCC1)C1CCCCC1 [compound 12, 3,3-dicyclohexyl-5,6,7,8-tetrahydroimidazo[1,2-a]-pyridin-2(3H)-one] | 53.5 | – |
| 35 to 40 °C | CCCCC1(CCCC)C(=O)N=C2CCCCN21 [compound 13, 3,3-dibutyl-5,6,7,8-tetrahydroimidazo[1,2-a]pyridin-2 (3H)-one] | – | inhibition in vivo at 1 mg/kg ([1]; dose 1 mg/kg p.o.): 49.6% |
| 182 °C (dec.) | O=C1N=C2C=CC=CN2C1Cc1ccccc1 (centres unmarked) [compound 14, 3-benzylimidazo[1,2-a]pyridin-2(3H)-one] | 53.6 | – |
| – | CCCC1(CCC)C(=O)N=C2CCCCN21 [compound 15, 3,3-dipropyl-5,6,7,8-tetrahydroimidazo[1,2-a]pyridin-2(3H)-one] | – | inhibition in vivo at 1 mg/kg ([1]; dose 1 mg/kg p.o.): 61.5% |
| – | CN1C=NC(Cc2ccccc2)(Cc2ccccc2)C1=O [compound 16, 4,4-dibenzyl-1-methyl-5-oxo-4,5-dihydroimidazol] | 73.3 | – |
| 149.5 °C (dec.) | CC=CCC1(CC=CC)C(=O)N=C2N=CC=CN21 (centres unmarked) [compound 17, 3,3-di(2-butenyl)imidazo[1,2-a]pyrimidin-2(3H)-one] | 54.4 | – |

| melting point | Molecule | inhibition in vivo at 0.01 mg/kg ([1]; dose 0.01 mg/kg p.o.) [%] | other results |
| --- | --- | --- | --- |
| – | O=C1N=C2C=CC=CN2C12Cc1cccc(F)c1C2 (centres unmarked) [compound 18, spiro[imidazo[1,2-a]pyridin-2(3H)-one-3,2′-(4′-fluoroindan)]] | – | Inhibitory rate (%) ([1]; dose 0.01 mg/kg p.o.): 90.3** % |
| – | COc1ccc2c(c1)CC1(C2)C(=O)N=C2C=CC=CN21 (centres unmarked) [compound 19, spiro[imidazo[1,2-a]pyridin-2(3H)-one-3,2′-(5′-methoxyindan)]] | – | Inhibitory rate (%) ([1]; dose 1 mg/kg p.o.): 83.4** % |
| – | O=C1N=C2C=CC=CN2C12Cc1ccc(I)cc1C2 (centres unmarked) [compound 20, spiro[imidazo[1,2-a]pyridin-2(3H)-one-3,2′-(5′-iodoindan)]] | – | Inhibitory rate (%) ([1]; dose 1 mg/kg p.o.): 72.4** % |
| – | N#Cc1cccc2c1CC1(C2)C(=O)N=C2C=CC=CN21 (centres unmarked) [compound 21, spiro[imidazo[1,2-a]pyridin-2(3H)-one-3,2′-(4′-cyanoindan)]] | – | Inhibitory rate (%) ([1]; dose 1 mg/kg p.o.): 52.4* % |
| – | O=C1N=C2c3ccccc3C=CN2C12Cc1ccccc1C2 [compound 22, spiro[imidazo[2,1-a]isoquinolin-2(3H)-one-3,2′-indan]] | – | Inhibitory rate (%) ([1]; dose 0.01 mg/kg p.o.): 76.5** % |
| – | O=C1N=C2C=CC=CN2C12Cc1cc3nsnc3cc1C2 [compound 23, spiro[imidazo[1,2-a]pyridin-2(3H)-one-3,2′-((1,2,5-thiadiazo)[4,5-c]indan)]] | – | Inhibitory rate (%) ([1]; dose 0.01 mg/kg p.o.): 88.2** % |
| – | O=C1N=C2N=CC=CN2C12Cc1ccccc1C2 [compound 25, spiro[imidazo[1,2-a]pyrimidin-2(3H)-one-3,2′-indan]] | – | Inhibitory rate (%) ([1]; dose 1 mg/kg p.o.): 78.3* % |
| – | O=C1N=C2C=CC=CN2C12Cc1ccc(C(F)(F)F)cc1C2 (centres unmarked) [compound 26, spiro[imidazo[1,2-a]pyridin-2(3H)-one-3,2′-(5′-trifluoromethylindan)]] | – | Inhibitory rate (%) ([1]; dose 1 mg/kg p.o.): 74.3** % |
| – | O=C1N=C2C=CC=CN2C12Cc1ccc3ccccc3c1C2 (centres unmarked) [compound 27, spiro[imidazo[1,2-a]pyridin-2(3H)-one-3,2′-benzo[e]-indan]] | – | Inhibitory rate (%) ([1]; dose 1 mg/kg p.o.): 64.9** % |
| – | O=C1N=C2c3ccccc3C=CN2C12CC=CC2 [compound 28, spiro[imidazo[2,1-a]isoquinolin-2 (3H)-one-3,1′-(3′-cyclopentene)]] | – | Inhibitory rate (%) ([1]; dose 0.01 mg/kg p.o.): 88.0** % |
| – | O=C1N=C2C(OCc3ccccc3)=CC=CN2C12CC=CC2 [compound 29, spiro[8-benzyloxyimidazo[1,2-a]pyridin-2(3H)-one-3,1′-(3′-cyclopentene)]] | – | Inhibitory rate (%) ([1]; dose 1 mg/kg p.o.): 87.7** % |
| – | O=C1N=C2C3=C(C=CN2C12CCCC2)CCCC3 [compound 30, spiro[7,8,9,10-tetrahydroimidazo[2,1-a]isoquinolin-2(3H)-one-3,1′-cyclopentane]] | – | Inhibitory rate (%) ([1]; dose 1 mg/kg p.o.): 89.5** % |
| – | O=C1N=C2c3ccccc3C=CN2C12CCCC2 [compound 31, spiro[imidazo[2,1-a]isoquinolin-2(3H)-one-3,1′-cyclopentane]] | – | Inhibitory rate (%) ([1]; dose 0.01 mg/kg p.o.): 56.7* % |
| – | O=C1N=C2CCCCN2C12Cc1cc3ccccc3cc1C2 [compound 32, spiro[5,6,7,8-tetrahydroimidazo[1,2-a]pyridin-2(3H)-one-3,2′-benzo[f]indan]] | – | Inhibitory rate (%) ([1]; dose 0.01 mg/kg p.o.): 61.4* % |
| – | O=C1N=C2CCCCN2C12Cc1ccccc1C2 [compound 33, spiro[5,6,7,8-tetrahydroimidazo[1,2-a]pyridin-2(3H)-one-3,2′-indan]] | – | Inhibitory rate (%) ([1]; dose 0.01 mg/kg p.o.): 66.1** % |
| – | O=C1N(c2ccccc2)c2ccccc2C1(Cc1ccncc1)Cc1ccncc1 [compound A, 3,3-bis(4-pyridylmethyl)-1-phenylindolin-2-one, reference compound] | 8.8 | inhibition in vivo at 1 mg/kg ([1]; dose 1 mg/kg p.o.): 20.9% |
| – | Nc1c2c(nc3ccccc13)CCCC2 [compound B, 9-amino-1,2,3,4-tetrahydro-acridine, reference compound] | 24.1 | inhibition in vivo at 1 mg/kg ([1]; dose 1 mg/kg p.o.): 54.9% |
| – | spiro[imidazo[2,1-a]isoquinolin-2(3H)-one-3,21-(1,2,5-thiadiazo)[4,5-c]indan)] [compound 24] | – | Inhibitory rate (%) ([1]; dose 0.01 mg/kg p.o.): 97.1** % |
